Among the data in patent publication US12582641B2, “Sulfur-containing compound based on glutarimide skeleton and application thereof” (SHANGHAITECH UNIVERSITY, priority 2019, dated 2026) are IC50 values, retold here.

SMILES strings stand for the structures.

This assay has as its system MM.1S cells. Put plainly: Proliferation inhibition (IC50) in MM.1S cells, cell viability assay. The settings on record: Homo sapiens, MM1.S, 72 h, read-out: IC50 (nM), proliferation inhibitory activity of MM.1S cells (half inhibitory concentration).

`O=C1CCC(N2C(=O)c3cccc(SCCCCCCCN4CCCCC4)c3C2=O)C(=O)N1` (stereo not shown) [SIAIS1221033, 2-(2,6-dioxopiperidin-3-yl)-4-((7-(piperidin-1-yl)heptyl)thio)isoindoline-1,3-dione]: the IC50 is 1.62 nM.

Take `O=C1CCC(N2C(=O)c3cccc(SCCCCCCCNC45CC6CC(CC(C6)C4)C5)c3C2=O)C(=O)N1` (stereo not shown) [SIAIS1221069, 4-((7-((adamantan-1-yl)amino)heptyl)thio)-2-(2,6-dioxopiperidin-3-yl)isoindoline-1,3-dione]: the IC50 came out at 0.02 nM.

Take `O=C1CCC(N2Cc3c(SCc4ccc(CNC5CCCCC5)cc4)cccc3C2=O)C(=O)N1` (stereo not shown) [SIAIS1221071, 3-(4-((4-((cyclohexylamino)methyl)benzyl)thio)-1-oxoisoindolin-2-yl)piperidine-2,6-dione]: the IC50 was found to be 0.072 ± 0.004 nM.

With `O=C1CCC(N2C(=O)c3ccc(SCCCCCCCNC45CC6CC(CC(C6)C4)C5)cc3C2=O)C(=O)N1` (stereo not shown) [SIAIS1221075, 5-((7-((adamantan-1-yl)amino)heptyl)thio)-2-(2,6-dioxopiperidin-3-yl)isoindoline-1,3-dione], the IC50 came to 15.8 nM.

Turning to `CC1(C)[C@@H]2CC[C@@]1(C)[C@@H](NCCCCCSc1cccc3c1CN(C1CCC(=O)NC1=O)C3=O)C2` (stereo partly drawn) [SIAIS1221113, 3-(1-oxo-4-((5-(((1R,2S,4R)-1,7,7-trimethylbicyclo[2.2.1]heptan-2-yl)amino)pentyl)thio)isoindolin-2-yl)piperidine-2,6-dione], the IC50 was determined as 0.027 nM.

As for `CC1(C)[C@@H]2CC[C@@]1(C)[C@@H](NCCCCCCSc1cccc3c1CN(C1CCC(=O)NC1=O)C3=O)C2` (stereo partly drawn) [SIAIS1221115, 3-(1-oxo-4-((6-(((1R,2S,4R)-1,7,7-trimethylbicyclo[2.2.1]heptan-2-yl)amino)hexyl)thio)isoindolin-2-yl)piperidine-2,6-dione], the IC50 is 0.082 nM.

Regarding `O=C1CCC(N2Cc3c(SCCCCCNC45CC6CC(CC(C6)C4)C5)cccc3C2=O)C(=O)N1` (stereo not shown) [SIAIS1221117, 3-(4-((5-((adamantan-1-yl)amino)pentyl)thio)-1-oxoisoindolin-2-yl)piperidine-2,6-dione], the IC50 was determined as 0.06 nM.

With `O=C1CCC(N2Cc3c(SCCCCCCN4CCC5(CCCCC5)CC4)cccc3C2=O)C(=O)N1` (stereo not shown) [SIAIS1221121, 3-(4-((6-(3-azaspiro[5.5]undecan-3-yl)hexyl)thio)-1-oxoisoindolin-2-yl)piperidine-2,6-dione], the IC50 turned out to be 0.057 nM.

For the compound `O=C1CCC(N2Cc3c(SCCCCCN4CCC5(CCCCC5)CC4)cccc3C2=O)C(=O)N1` (stereo not shown) [SIAIS1221123, 3-(4-((5-(3-azaspiro[5.5]undecan-3-yl)pentyl)thio)-1-oxoisoindolin-2-yl)piperidine-2,6-dione], the IC50 turned out to be 0.051 nM.

Regarding `CN(CCCCCCCSc1cccc2c1CN(C1CCC(=O)NC1=O)C2=O)C1CCC(C)(C)CC1` (stereo not shown) [SIAIS1221125, 3-(4-((7-((4,4-dimethylcyclohexyl)(methyl)amino)heptyl)thio)-1-oxoisoindolin-2-yl)piperidine-2,6-dione], the IC50 came to 0.035 nM.

Take `CN(CCCCCCSc1cccc2c1CN(C1CCC(=O)NC1=O)C2=O)CC12CC3CC(CC(C3)C1)C2` (stereo not shown) [SIAIS1221127, 3-(4-((6-((adamantan-1-ylmethyl)(methyl)amino)hexyl)thio)-1-oxoisoindolin-2-yl)piperidine-2,6-dione]: the IC50 was 0.059 nM.

As to `CN(CCCCCCCSc1cccc2c1CN(C1CCC(=O)NC1=O)C2=O)[C@H]1C[C@H]2CC[C@]1(C)C2(C)C` (stereo partly drawn) [SIAIS1221129, 3-(4-((7-(methyl((1R,2S,4R)-1,7,7-trimethylbicyclo[2.2.1]heptan-2-yl)amino)heptyl)thio)-1-oxoisoindolin-2-yl)piperidine-2,6-dione], the IC50 was 0.021 nM.

For the compound `CC1(C)[C@@H]2CC[C@@]1(C)[C@@H](NCc1ccc(CSc3cccc4c3C(=O)N(C3CCC(=O)NC3=O)C4=O)cc1)C2` (stereo partly drawn) [SIAIS1221147, 2-(2,6-dioxopiperidin-3-yl)-4-((4-((((1R,2S,4R)-1,7,7-trimethylbicyclo[2.2.1]heptan-2-yl)amino)methyl)benzyl)thio)isoindoline-1,3-dione], the IC50 amounted to 0.458 nM.

Regarding `CN1C(=O)CCC(N2Cc3c(SCCCCCCCNC45CC6CC(CC(C6)C4)C5)cccc3C2=O)C1=O` (stereo not shown) [SIAIS1221149, 3-(4-((7-(adamantan-1-ylamino)heptyl)thio)-1-oxoisoindolin-2-yl)-1-methylpiperidine-2,6-dione], the IC50 worked out at 21.9 nM.

In the case of `O=C1CCC(N2C(=O)c3cccc(SCCCCCCCNC4CCCCC4)c3C2=O)C(=O)N1` (stereo not shown) [SIAIS1221175, 4-((7-(cyclohexylamino)heptyl)thio)-2-(2,6-dioxopiperidin-3-yl)isoindoline-1,3-dione], the IC50 came to 0.938 nM.

Regarding `CC1(C)[C@@H]2CC[C@@]1(C)[C@@H](NCCCCCCCSc1cccc3c1C(=O)N(C1CCC(=O)NC1=O)C3=O)C2` (stereo partly drawn) [SIAIS1221177, 2-(2,6-dioxopiperidin-3-yl)-4-((7-(((1R,2S,4R)-1,7,7-trimethylbicyclo[2.2.1]heptan-2-yl)amino)heptyl)thio)isoindoline-1,3-dione], the IC50 stood at 0.258 nM.

Consider `O=C1CCC(N2C(=O)c3cccc(SCc4ccc(CNC56CC7CC(CC(C7)C5)C6)cc4)c3C2=O)C(=O)N1` (stereo not shown) [SIAIS1222013, 4-((4-(((adamantan-1-yl)amino)methyl)benzyl)thio)-2-(2,6-dioxopiperidin-3-yl)isoindoline-1,3-dione], for which the IC50 is 0.621 nM.

Turning to `CN(CCCCCCCSc1cccc2c1C(=O)N(C1CCC(=O)NC1=O)C2=O)C12CC3CC(CC(C3)C1)C2` (stereo not shown) [SIAIS1222029, 4-((7-((adamantan-1-yl)(methyl)amino)heptyl)thio)-2-(2,6-dioxopiperidin-3-yl)isoindoline-1,3-dione], the IC50 was found to be 0.21 nM.

On to `O=C1CCC(N2C(=O)c3cccc(SCCCCCCNCC45CC6CC(CC(C6)C4)C5)c3C2=O)C(=O)N1` (stereo not shown) [SIAIS1222071, 4-((6-(((adamantan-1-yl)methyl)amino)hexyl)thio)-2-(2,6-dioxopiperidin-3-yl)isoindoline-1,3-dione], for which the IC50 was determined as 2.12 nM.

In the case of `O=C1CCC(N2Cc3c(SCCCCCCCNC4CC5(CCC5)C4)cccc3C2=O)C(=O)N1` (stereo not shown) [SIAIS1222077, 3-(1-oxo-4-((7-(spiro[3.3]heptan-2-ylamino)heptyl)thio)isoindolin-2-yl)piperidine-2,6-dione], the IC50 was determined as 0.006 nM.

As to `CC(C)(C)NCCCCCCCSc1cccc2c1CN(C1CCC(=O)NC1=O)C2=O` (stereo not shown) [SIAIS1222079, 3-(4-((7-(tert-butylamino)heptyl)thio)-1-oxoisoindolin-2-yl)piperidine-2,6-dione], the IC50 was 0.135 nM.

With `O=C1CCC(N2Cc3c(SCc4ccc(CNCC56CC7CC(CC(C7)C5)C6)cc4)cccc3C2=O)C(=O)N1` (stereo not shown) [SIAIS1222085, 3-(4-((4-(((adamantan-1-ylmethyl)amino)methyl)benzyl)thio)-1-oxoisoindolin-2-yl)piperidine-2,6-dione], the IC50 is 0.029 nM.

`O=C1CCC(N2C(=O)c3cccc(SCCCCCNC45CC6CC(CC(C6)C4)C5)c3C2=O)C(=O)N1` (stereo not shown) [SIAIS1222097, 4-((5-((adamantan-1-yl)amino)pentyl)thio)-2-(2,6-dioxopiperidin-3-yl)isoindoline-1,3-dione]: the IC50 turned out to be 0.409 nM.

With `CN(CCCCCCCSc1cccc2c1CN(C1CCC(=O)NC1=O)C2=O)C1CC1` (stereo not shown) [SIAIS1222103, 3-(4-((7-(cyclopropyl(methyl)amino)heptyl)thio)-1-oxoisoindolin-2-yl)piperidine-2,6-dione], the IC50 came out at 0.25 nM.

Take `O=C1CCC(N2Cc3c(SCCCCCCCNC4CC4)cccc3C2=O)C(=O)N1` (stereo not shown) [SIAIS1222105, 3-(4-((7-(cyclopropylamino)heptyl)thio)-1-oxoisoindolin-2-yl)piperidine-2,6-dione]: the IC50 is 0.181 nM.

On to `O=C1CCC(N2Cc3c(SCCCCCCCN4C[C@H]5CCCC[C@H]5C4)cccc3C2=O)C(=O)N1` (stereo partly drawn) [SIAIS1222107, 3-(4-((7-((3aR,7aS)-hexahydro-1H-isoindol-2(3H)-yl)heptyl)thio)-1-oxoisoindolin-2-yl)piperidine-2,6-dione], for which the IC50 turned out to be 0.05 nM.

Turning to `O=C1CCC(N2C(=O)c3cccc(SCCCCCCNC45CC6CC(CC(C6)C4)C5)c3C2=O)C(=O)N1` (stereo not shown) [SIAIS1222109, 4-((6-((adamantan-1-yl)amino)hexyl)thio)-2-(2,6-dioxopiperidin-3-yl)isoindoline-1,3-dione], the IC50 amounted to 0.404 nM.

For the compound `O=C1CCC(N2Cc3c(SCCCCCCCNC4CCC4)cccc3C2=O)C(=O)N1` (stereo not shown) [SIAIS1222115, 3-(4-((7-(cyclobutylamino)heptyl)thio)-1-oxoisoindolin-2-yl)piperidine-2,6-dione], the IC50 turned out to be 0.182 nM.

For the compound `O=C1CCC(N2Cc3c(SCCCCCCCNC4CCCC4)cccc3C2=O)C(=O)N1` (stereo not shown) [SIAIS1222117, 3-(4-((7-(cyclopentylamino)heptyl)thio)-1-oxoisoindolin-2-yl)piperidine-2,6-dione], the IC50 was 0.123 nM.

Take `O=C1CCC(N2Cc3c(SCCCCCCCNC45CC(C4)C5)cccc3C2=O)C(=O)N1` (stereo not shown) [SIAIS1222123, 3-(4-((7-(bicyclo[1.1.1]pentan-1-ylamino)heptyl)thio)-1-oxoisoindolin-2-yl)piperidine-2,6-dione]: the IC50 came to 0.053 nM.

Regarding `CC(NCCCCCCSc1cccc2c1CN(C1CCC(=O)NC1=O)C2=O)C12CC3CC(CC(C3)C1)C2` (stereo not shown) [SIAIS1222139, 3-(4-((6-((1-(adamantan-1-yl)ethyl)amino)hexyl)thio)-1-oxoisoindolin-2-yl)piperidine-2,6-dione], the IC50 amounted to 0.131 nM.

For the compound `O=C1CCC(N2Cc3c(SCCCCCCCNC45CC6CC(CC(O)(C6)C4)C5)cccc3C2=O)C(=O)N1` (stereo not shown) [SIAIS1222141], the IC50 was 0.342 nM.

For `O=C1CCC(N2Cc3c(SCCCCCCNC(=O)C45CC6CC(CC(C6)C4)C5)cccc3C2=O)C(=O)N1` (stereo not shown) [SIAIS1222143, N-(6-((2-(2,6-dioxopiperidin-3-yl)-1-oxoisoindolin-4-yl)thio)hexyl)adamantane-1-carboxamide], the IC50 is 0.07 nM.

On to `O=C1CCC(N2Cc3c(SCCCCCCNC(=O)C45CC6CC(CC(Cl)(C6)C4)C5)cccc3C2=O)C(=O)N1` (stereo not shown) [SIAIS1222145, 3-chloro-N-(6-((2-(2,6-dioxopiperidin-3-yl)-1-oxoisoindolin-4-yl)thio)hexyl)adamantane-1-carboxamide], for which the IC50 amounted to 0.043 nM.
